Assays:
Nrf2 pathway = conditions: ref [34]; cited from earlier work
Source text: PANa triggers the buildup of reactive oxygen species (ROS) within cells, resulting in oxidative stress and subsequent cellular injury. Antioxidant enzymes are essential for alleviating oxidative stress.

FASN and ACC1 = conditions: ref [39]; cited from earlier work
Source text: Lipid metabolism, including lipolysis, lipogenesis, and lipid transport, determines the lipid levels in the body. FASN and ACC are two significant lipid synthetases that play a key role in lipid accumulation. PANa primarily influences hepatic lipogenesis through the modulation of FASN and ACC1 expression. […] CPT1 and ATGL are closely linked to lipolysis and are crucial for regulating lipid levels. ...

catalase (CAT) = test: Catalase (CAT) activity in HepG2; format: cell-based; conditions: 100 μM peptide 4 h, then 350 µM PANa 24 h, HepG2
Procedure: (§1) After incubation, cells were treated with 100 μM of peptides for 4 h. After removing the media, PANa was added for 24 h of incubation. The levels of catalase (CAT), superoxide dismutase (SOD), glutathione peroxidase (GSH-Px), malondialdehyde (MDA), triacylglycerol (TG), total cholesterol (TCHO), low-density lipoprotein cholesterol (LDL-C), and high-density lipoprotein cholesterol (HDL-C) in the supernatant were determined according to the kit instructions.

Nrf2 = test: Western blot Nrf2; format: cell-based; conditions: 100 μM peptide 4 h, then 350 µM PANa 24 h, HepG2, Western blot
Procedure: (§2) After treatment, cells were washed with pre-chilled PBS and lysed with ice-cold lysis buffer for 30 min. The supernatant was collected after centrifugation at 12,000× g for 10 min and stored at −80 °C. Protein concentration was determined using a BCA protein assay kit. Equal amounts of protein (20–40 µg) were subjected to 10% sodium dodecyl sulfate-polyacrylamide gel electrophoresis (SDS-PAGE) and transferred to PVDF membranes (Polyvinylidene Fluoride, Merck, Darmstadt, Germany). Non-specific binding sites were blocked with 5% bovine serum albumin (BSA) solution at room temperature for 1 h, followed by incubation with the primary antibody at 4 °C overnight. After washing with TBST (3 times, 10 min/time), the membrane was incubated with the secondary antibody at room temperature for 1 h. Following further washing with TBST (3 times, 10 min/time), antibody signals were detected using a Western blot development system. The dilution ratios for the internal reference protein, vascular endothelial injury-related proteins, and oxidative stress-related pathway proteins were prepared according to the manufacturer’s instructions.

HO-1 = test: Western blot HO-1; format: cell-based; conditions: 100 μM peptide 4 h, then 350 µM PANa 24 h, HepG2, Western blot
Procedure: as §2

triacylglycerol (TG) = test: Triacylglycerol (TG) level in HepG2; format: cell-based; conditions: 100 μM peptide 4 h, then 350 µM PANa 24 h, HepG2
Procedure: as §1

HepG2 cells [1] = test: Cell viability of PANa-induced HepG2 (CCK-8); format: cell-based; conditions: 100 μM peptide 4 h, then 350 µM PANa 24 h, **** p < 0.0001 vs PANa group
Procedure: A total of 2 × 10^4 cells/well were inoculated in 96-well plates for culture at 37 °C and 5% CO2. Following this period, the cells received treatment with 200 μL medium containing 100 μM LR-7, KA-8, or PG-7 for 4 h before adding 350 μM PANa to each well. After incubation for an additional 24 h, the cell proliferation rates were assessed using the CCK-8 assay protocols.

total cholesterol (TCHO) = test: Total cholesterol (TCHO) level in HepG2; format: cell-based; conditions: 100 μM peptide 4 h, then 350 µM PANa 24 h, HepG2
Procedure: as §1

HepG2 cells [2] = test: CCK-8 proliferation of HepG2 with peptide alone; format: cell-based; conditions: concentrations below 200 µM, 24 h, CCK-8, n = 3
Procedure: HepG2 cells were cultured in DMEM supplemented with penicillin at a concentration of 100 U/mL, streptomycin at 100 μg/mL, and fetal bovine serum at a volume ratio of 10% under conditions of 37 °C and 5% CO2. A total of 2 ×10^4 cells per well were seeded into a 96-well plate for overnight culture. The upper layer of medium was carefully aspirated, and 200 μL of different concentrations of oligopeptide solution (50 μM, 100 μM, 200 μM) prepared with cell complete medium was added to each well. Twenty-four hours later, the proliferation rate of the cells was measured according to the instructions of the CCK-8 kit, and the appropriate concentration of oligopeptide was screened out.

malondialdehyde (MDA) = test: Malondialdehyde (MDA) level in HepG2; format: cell-based; conditions: 100 μM peptide 4 h, then 350 µM PANa 24 h, HepG2
Procedure: as §1

[3] = system: superoxide dismutase (SOD); test: Superoxide dismutase (SOD) activity in HepG2; format: cell-based; conditions: 100 μM peptide 4 h, then 350 µM PANa 24 h
Procedure: as §1

[4] = system: proteins associated with lipid metabolism; test: Western blot, proteins associated with lipid metabolism overall; format: cell-based; conditions: 100 μM peptide 4 h, then 350 µM PANa 24 h, HepG2, Western blot
Procedure: as §2

NQO1 = test: Western blot NQO1; format: cell-based; conditions: 100 μM peptide 4 h, then 350 µM PANa 24 h, HepG2, Western blot
Procedure: as §2

[5] = system: low-density lipoprotein cholesterol (LDL-C); test: LDL-C level in HepG2; format: cell-based; conditions: 100 μM peptide 4 h, then 350 µM PANa 24 h, HepG2
Procedure: as §1

[6] = system: fatty acid synthase (FASN); test: Western blot FASN; format: cell-based; conditions: 100 μM peptide 4 h, then 350 µM PANa 24 h, HepG2, Western blot
Procedure: as §2

[7] = system: phosphorylated ACC1 (p-ACC1); test: Western blot p-ACC1; format: cell-based; conditions: 100 μM peptide 4 h, then 350 µM PANa 24 h, HepG2, Western blot
Procedure: as §2

[8] = system: high-density lipoprotein cholesterol (HDL-C); test: HDL-C level in HepG2; format: cell-based; conditions: 100 μM peptide 4 h, then 350 µM PANa 24 h, HepG2
Procedure: as §1

pancreatic lipase = test: Pancreatic lipase activity inhibition; format: biochemical; conditions: compared with orlistat (positive control); 4-nitrophenyl palmitate substrate, lipase 1.2 mg/mL, peptide 100 μM, Tris-HCl pH 8.0, 37 °C, absorbance 405 nm, three parallel wells
Procedure: A working substrate solution consisting of 4-nitrophenyl palmitate dissolved in sodium acetate solution (containing 1% Triton-X 100, 100 mL, 5 mM, pH 5.0) was prepared. Enzyme powder was dissolved in Tris-HCl buffer (pH 8.0, 37 °C). This mixture was incubated at 4 °C for 2 h before centrifugation at 5000 r/min for 5 min, yielding the supernatant used to prepare a pancreatic lipase solution of 1.2 mg/mL. Orlistat at a concentration of 1 mg/mL in Tris-HCl buffer (pH 8.0; 37 °C) was prepared alongside DMSO to reach a concentration of 350 μg/mL peptide solution. The peptide solution of 100 μM was prepared with Tris-HCl buffer (pH = 8.0, 37 °C). The absorbance was measured at 405 nm, and the inhibition rate was measured in parallel with three holes due to the methodology of Franco et al..

[9] = system: glutathione peroxidase (GSH-Px); test: Glutathione peroxidase (GSH-Px) activity in HepG2; format: cell-based; conditions: 100 μM peptide 4 h, then 350 µM PANa 24 h, HepG2
Procedure: as §1

HUVECs = conditions: earlier work, ref [21]; cited from earlier work
Source text: Harpadon nehereus, a nutrient-rich marine species indigenous to the Indo-Pacific region, remains underexploited despite its significant collagen content (18–22% wet weight). Harpadon nehereus serves as an economical source that is rich in protein and trace elements. Its proteins and derived peptides offer numerous health benefits including immune enhancement, blood pressure reduction, cardiovascular protection, and inflammation mitigation. In prior research, we successfully isolated three novel peptides LALFVPR (LR-7), KLHDEEVA (KA-8), and PSRILYG (PG-7) from the enzymatic hydrol ... || Studies have confirmed that oxidative stress and lipid metabolism disorders are significant factors in the occurrence and development of hyperlipidemia Dietary intervention is a crucial auxiliary strategy for the management of hyperlipidemia. Collagen peptides have been extensively used as a nutritional intervention in the treatment of various diseases due to their notable antioxidant, anti-inflammatory, and hypolipidemic activities. […] Anoth ...

| CAT activity, reversal of PANa-induced reduction (catalase (CAT)) | SOD activity, reversal of PANa-induced reduction [3] | inhibition of pancreatic lipase activity (pancreatic lipase) | GSH-Px activity, reversal of PANa-induced reduction [9] | Molecule | hepatic steatosis, oxidative stress, inflammatory cell infiltration and fibrosis via Nrf2 pathway (Nrf2 pathway) | expression levels of FASN and ACC1 / lipid accumulation (FASN and ACC1) | Nrf2 protein level (Nrf2) | HO-1 protein level (HO-1) | TG, effect on PANa-induced increase (triacylglycerol (TG)) | cell viability of PANa-exposed HepG2 (HepG2 cells [1]) | TCHO, effect on PANa-induced increase (total cholesterol (TCHO)) | effect on apoptosis of HepG2 cells (HepG2 cells [2]) | MDA level (malondialdehyde (MDA)) | abnormal expression of proteins associated with lipid metabolism by PANa (FASN, ATGL, CPT1, p-AMPKα) [4] | NQO1 protein level (NQO1) | LDL-C, effect on PANa-induced increase [5] | FASN expression vs PANa group [6] | p-ACC1 level vs PANa group [7] | HDL-C, effect on PANa-induced decrease [8] | effect on angiotensin II-induced dysfunctions within HUVECs (HUVECs) |
| --- | --- | --- | --- | --- | --- | --- | --- | --- | --- | --- | --- | --- | --- | --- | --- | --- | --- | --- | --- | --- |
| – | – | – | – | COc1ccc([C@@H]2CC(=O)c3c(O)cc(O)cc3O2)cc1O [hesperetin] | reduce hepatic steatosis, alleviate oxidative stress, decrease inflammatory cell infiltration, and mitigate fibrosis through activation of the Nrf2 pathway | – | – | – | – | – | – | – | – | – | – | – | – | – | – | – |
| – | – | – | – | Oc1ccc2c(c1)OCO2 [sesamol (SEM), sesamol] | – | influence lipid accumulation by decreasing the expression levels of FASN and ACC1 | – | – | – | – | – | – | – | – | – | – | – | – | – | – |
| effectively reversed the reduction | effectively reversed the reduction | comparable results to orlistat | effectively reversed the reduction | KLHDEEVA [KA-8, peptide from Harpadon nehereus bone collagen enzymatic hydrolysates] | – | – | significant increases in the levels | significant increases in the levels | notably reversed the PANa-induced increases | notably enhanced the cell viability | notably reversed the PANa-induced increases | no effect on the apoptosis of HepG2 cells | significantly decreased the MDA levels | significantly reversed | significant increases in the levels | notably reversed the PANa-induced increases | FASN expression decreased | p-ACC1 levels increased significantly | notably reversed | – |
| effectively reversed the reduction | effectively reversed the reduction | less effective than orlistat | effectively reversed the reduction | PSRILYG [PG-7, peptide from Harpadon nehereus bone collagen enzymatic hydrolysates] | – | – | significant increases in the levels | significant increases in the levels | notably reversed the PANa-induced increases | notably enhanced the cell viability | notably reversed the PANa-induced increases | no effect on the apoptosis of HepG2 cells | significantly decreased the MDA levels | significantly reversed | significant increases in the levels | notably reversed the PANa-induced increases | FASN expression decreased | p-ACC1 levels increased significantly | notably reversed | improve angiotensin II-induced dysfunctions within HUVECs |
